Results on nine molecules are retold here after patent publication EP0139358B1, “N6-substituted diarylalkyl adenosines, processes for their production and pharmaceutical compositions comprising the same” (priority 1983, dated 1985).

The subject of data set [1] is Swiss-Webster male mice. The experiment in a line: Mouse Activity and Screen Test (MAST): inhibition of spontaneous locomotion (LI). The format is in vivo. How it is done:
(§1) Treatments are administered intraperitoneally one hour prior to testing. […] Compounds are dissolved or suspended in 0.2% Methocel. Control animals are injected with Methocel.
Immediately following the screen test, the final phase of testing is initiated by placing each group of three mice in one actophotometer (Life Sciences, 22, 1067-1076, 1978). The actophotometer consists of a cylindrical chamber whose center is occupied by another cylinder which contains the illumination for six photocells located on the perimeter of the chamber. Six light-beam interruptions equal one count. Locomotor activity is recorded by computer at ten minute intervals for 60 minutes. […]

The subject of data set [2] is Long-Evans rats or squirrel-monkeys. Kind of data set: Antipsychotic lever-push shock avoidance protocol (SIDR). The format is in vivo. The following applies: Rattus norvegicus; shock avoidance lever pushing; read-out: SIDR ED50. How it is done: Representative compounds of the invention (identified in the Examples) were also tested for antipsychotic activity according to the following protocol (SIDR). […] Mature male Long-Evans rats or squirrel-monkeys are conditioned to push a lever in order to avoid a painful electric footshock. If the animal fails to push the lever, he receives a shock every ten seconds until the lever is pushed. Shocks can be terminated by pushing the lever. Thereafter, as long as the lever is pushed at least once every 20 seconds, there will be no shock. Each animal acts as its own control; one weekly session is used to establish baseline behavior and another session later in the week is used as a drug session. Once patterns of avoidance are established, the effects of standard and unknown compounds are studied. All events are electronically programmed and the response to these events counted or used as feedback to the program.

Data set [3] has as its system rat heart. The experiment in a line: Coronary blood flow (PCS2A): isolated perfused heart. How it is done:
CORONARY BLOOD FLOW (PCS2A)
Male rats (400-600 gms) are pretreated with Na haparin 2000 units and anesthetized with Na pentobarbital (50 mg/kg) administered intraperitoneally. Once anesthetized, the rat heart is rapidly excised, the ascending aorta fitted to the aortic perfusion cannula, and […] with a ligature. The coronary arteries are perfused initially at a rate of about 15 ml/min for two to three minutes, afterwhich they are perfused at constant pressure of 70 mm Hg and temperature of 37°C. The electrocardiogram (ECG) is recorded using two platinum electrodes positioned at the base and apex of the left ventricle. A second heart is excised, cannulated, and perfused by the same method outlined above. Both hearts are tested in parallel. The standard physiological salt solution (PSS) is a modified Krebs-Hanseleit bicarbonate buffer of the following composition in mM concentration: NaCI, 127; NaHC03, 25; dextrose, 5.5; Na Pyruvate, 2.0: KCI, 4.7; MgS04, 1.1; KH 2P04, 1.2; CaCl2·2H2O, 2.5; CaNa2 EDTA, 0.05.
A 30-minute stabilization period is observed before starting the test protocol.
The microprocessor control system is a servo mechanism which permits coronary perfusion pressure (CPP) and drug concentration to be maintained constant independent of changes in coronary flow. The level at which CPP and drug concentration are maintained can be changed by commands communicated through the microprocessor keyboard. Dose-response curves are carried out by perfusing concentrated drug solution (DC) at rates proportional to total coronary flow (CFT). Drug concentrations are increased by proportionate increases in the rate of DC infusion over CFT via the microprocessor keyboard. The proportional flow rates for DC:CFT is about .0002:1 at the low end and .02: at the high end of the dose-response curve. Dose-response curves encompassing at least two log doses are carried out by preparing two DCs with a concentration difference of 1:100. Following the first dose range of two log doses, the DC are switched, proportional pumping rate adjusted, and the dose-response curve continued for another two log doses. The standard dose-response curve is carried out in one-half log dose increments starting at a subthreshold dose and ending at a dose which produces near maximal response in activity. Standard reference compounds are tested over the range of 10-^9 to 10-^6M.
Measurements are for heart rate (HR) and coronary flow (CF). Units are: HR, beats/minute (bpm) and CF, milliliters/minute (ml/min). HR is calculated from the ECG strip chart recording and CF is calculated by recording analog outputs from pumps 1 and 2. Outputs from pump #1 = CFT and the output from pump #2 = CF for heart B (CFg). CF for heart A (CFA) is calculated (CFT - CFB = CFA).
Using the above technique, the effects of the compound of Examples 1 and 2 are as follows: […]

Data set [4] relates to Swiss-Webster male mice. The experiment in a line: Mouse Activity and Screen Test (MAST): screen test (ST). The format is in vivo. The following applies: for Inhibition of screen test failure: percent of mice falling off the screen; for MAST ST LAD: lowest dose at which an A rating (60-100%) is achieved, screen test, intraperitoneally. As to the method:
as §1
The compounds are identified in the Examples.

For data set [5], the system named is conscious rat. Kind of data set: Antihypertensive evaluation (AHP3): aortic blood pressure and heart rate. The format is in vivo. The following applies: for minimal effective dose: read-out: AHP3 BP LAD. From the text:
[…] EVALUATION (AHP3)
This test procedure is described in the following paragraphs.
A Method for the Direct Monitoring of Aortic Blood Pressure and Heart Rate from Conscious Rats
The continuous monitoring of pulsatile blood pressure (BP) from unrestrained conscious rats surgically equipped with polyethylene cannulas was accomplished by means of a computer assisted data capture scheme (CADCS). The absic elements of the methodology are the cannulation procedure and the CADCS.
Cannulation Procedure: Rats were anesthetized with Telazol (1:1 tiletamine HCI and zolazepam HCI); 20-40 mg/kg IM and the descending aorta exposed via a midline incision. Cannulas fabricated from polyethylene tubing were inserted into the aorta via an undersized puncture hole below the renal arteries. The puncture hole was made by a 23 G disposable needle with a section of the aorta clamped off above and below the puncture site. The cannulas, consisting of a PE100 (0.86 mm ID) body and a PE50 (0.58 mm ID) tip, were attached to a trocar, inserted through the psoas muscle, and passed subcutaneously along the midline of the back and externalized between the ears. The cannulas were anchored to the psoas muscle and between the scalulae (3-0 green braided suture). The midline incision was closed in two steps (muscle first, skin second) using continuous over-and over sutures (4-0 chronic). Each rat was then given penicillin 30,000 units subcutaneously (Penicillin G Procaine Sterile Suspension).
The rats were fitted with a harness-spring-swivel assembly designed to protect the cannula and to provide the rat relative freedom of movement. The harnesses were fabricated from nylon hook and loop tape cemented to a metal plate to which spring wires (18-8 stainless steel), were attached to brass swivels. Each polyethylene cannula was channeled through a spring and connected through a swivel to a pressure transducer (Model P23Gb; Statham Instruments; Hato Rey, Puerto Rico) and an infusion pump (Sage model 234-7; Orion Research, Cambridge, Ma) by means of PE100 tubing. While on test, each rat received a continuous slow infusion of heparinized saline solution (approximately 400 I or 40 units of heparin per 24 hour period) to prevent clot formation. Additional "flushes" of the cannula with heparinized saline were carried out when the aortic pulse pressure (systolic minus diastolic) was less than 25 mm Hg.
CADCS: The pulsatile blood pressure and heart rate of each of 32 rats was monitored every minute by means of two in-laboratory microcomputers communicating directly with a data concentrator computer. The data were first stored on the data concentrator disk and then transferred to a magnetic tape for analysis and report generation by the main research computer. The overall scheme involved modulating the primary signal from the pressure transducer, generating the primary data set of the one-minute values for systolic, diastolic, and mean blood pressures and heart rate by the in-lab microcomputer and the storage, analysis, and report generation by the main research computer.
The transducers were connected to analog signal conditioning modules. The modules providing a regulated excitation voltage for the transducers, amplification as required to interface the microprocessors and an active low pass filter to compensate for the pressure wave form distortion produced by the flexible, fluid filled, narrow cannula.
The microcomputers (one for each of two groups of 16 rats) were connected to the input components through the module interface units, an analog-to-digital converter for the pressure wave form signal and the digital inputs for the dose and event marker switches. The microcomputer controlled the sequential acquisition of data from the modular interface units through an internal synchronous time-of-day clock/ time base generator. […]

[6] abbreviates: Mus musculus, ip; read-out: MAST LI LAD.
Where [7] appears, read: coronary flow, isolated perfused rat heart, read-out: PCS2A CF ED50.
[8] abbreviates: heart rate, isolated perfused rat heart, read-out: PCS2A HR ED50.
The mark [9] stands for this setting: lowest dose tested at which a >10% reduction in blood pressure for four consecutive hours is achieved, conscious rat.

pEC50: −log10 of the molar value. Where two headings read alike, the source gives them in different places.

As to `OC[C@H]1O[C@@H](n2cnc3c(NCC(c4ccccc4)c4ccccc4)nc(Cl)nc32)[C@H](O)[C@@H]1O` [Example 3, N^6-(2,2-Dipenylethyl)-2-chloroadenosine], the “Inhibition of mouse locomotor activity” value in data set [1] (10 mg/kg intraperitoneally, one hour prior to testing; vs vehicle) was 56%; in data set [1] (30 mg/kg intraperitoneally, one hour prior to testing; vs vehicle), 85%; in data set [1] (100 mg/kg intraperitoneally, one hour prior to testing; vs vehicle) it was 92%. In addition, the minimal effective dose in data set [1] (setting [6]) and in data set [5] (setting [9]) was 10 mg/kg each time. Besides, the ED50 in data set [2] amounted to 9.6 mg/kg. For the same molecule, the pEC50 in data set [3] (setting [7]) was 4.52; in data set [3] (setting [8]), under 4.52. For the same molecule, the “Inhibition of screen test failure” value in data set [4] (10 mg/kg intraperitoneally) was determined as 0%; in data set [4] (30 mg/kg intraperitoneally) it was 11%; in data set [4] (100 mg/kg intraperitoneally), 44%. Further, the “MAST ST LAD” value in data set [4] was over 100 mg/kg. Also, the “Mμ.c. ↓” value in data set [5] (10 mg/kg, conscious rat, decrease in mean arterial blood pressure) amounted to 15%. For the same molecule, the “HR ↑” value in data set [5] (10 mg/kg, conscious rat, heart rate increase) is given as under 20%.
On to `OC[C@H]1O[C@@H](n2cnc3c(NCCCCC(c4ccccc4)c4ccccc4)ncnc32)[C@H](O)[C@@H]1O` [Example 7, N^6-(5,5-Diphenylpentyl)adenosine], for which the minimal effective dose was 100 mg/kg in data set [1] (setting [6]) and over 10 mg/kg in data set [5] (setting [9]). Also, the pEC50 was under 5.52 in data set [3] (setting [7]) and 5.52 in data set [3] (setting [8]). Besides, in data set [4], the “MAST ST LAD” value is recorded as over 100 mg/kg.
For `OC[C@H]1O[C@@H](n2cnc3c(NCC(c4ccccc4)c4ccc(F)cc4)nc(Cl)nc32)[C@H](O)[C@@H]1O` (stereo partly drawn) [Example 11, N^6-(2-(4-Fluorophenyl)-2-phenylethyl)-2-chloroadenosine] the same measures were 30 mg/kg, 10 mg/kg, 7.30, under 5.52 and over 100 mg/kg.
For the molecule `Nc1nc(NCC(c2ccccc2)c2ccc(F)cc2)c2ncn([C@@H]3O[C@H](CO)[C@@H](O)[C@H]3O)c2n1` (stereo partly drawn) [Example 12, N^6-(2-(4-Fluorophenyl)-2-phenylethyl)-2-amino adenosine], the minimal effective dose in data set [1] (setting [6]) came out at 30 mg/kg; in data set [5] (setting [9]), 10 mg/kg. Besides, the pEC50 in data set [3] (setting [7]) and in data set [3] (setting [8]) was under 5.00 throughout. Also, the “MAST ST LAD” value in data set [4] is on record as over 100 mg/kg.
Take `COc1ccc(C(CNc2ncnc3c2ncn3[C@@H]2O[C@H](CO)[C@@H](O)[C@H]2O)c2ccccc2)cc1` (stereo partly drawn) [Example 19, N^6-(2-(4-Methoxyphenyl)-2-phenylethyl)adenosine]: the minimal effective dose in data set [1] (setting [6]) and in data set [5] (setting [9]) was 10 mg/kg each time. Besides, the figures for the pEC50 in data set [3] (setting [7]) and in data set [3] (setting [8]) were 7.52 and under 5.52, respectively. Besides, in data set [4], the “MAST ST LAD” value was 30 mg/kg.
`O=[N+]([O-])c1ccc(C(CNc2ncnc3c2ncn3[C@@H]2O[C@H](CO)[C@@H](O)[C@H]2O)c2ccc([N+](=O)[O-])cc2)cc1` [Example 20, N^6-(2,2-Di-(4-nitrophenyl)ethyl)adenosine]: the minimal effective dose is 100 mg/kg in data set [1] (Mus musculus, ip, read-out: MAST LI LAD) and over 10 mg/kg in data set [5] (Rattus norvegicus). In addition, the pEC50 in data set [3] (Rattus norvegicus, read-out: PCS2A CF ED50) was 6.52; in data set [3] (Rattus norvegicus, read-out: PCS2A HR ED50), under 5.52. Moreover, the “MAST ST LAD” value in data set [4] was over 100 mg/kg.
On to `CC(CNc1nc(N)nc2c1ncn2[C@@H]1O[C@H](CO)[C@@H](O)[C@H]1O)(c1ccccc1)c1ccccc1` [Example 21, N'-(2,2-Diphenylpropyl)-2-aminoadenosine], for which the minimal effective dose in data set [1] (setting [6]) is 30 mg/kg; in data set [5] (setting [9]) it was over 10 mg/kg. Besides, the pEC50 in data set [3] (setting [7]) and in data set [3] (setting [8]) was under 5.00 throughout. In addition, in data set [4], the “MAST ST LAD” value is given as over 100 mg/kg.
For `OC[C@H]1O[C@@H](n2cnc3c(NCC(O)(c4ccccc4)c4ccccc4)ncnc32)[C@H](O)[C@@H]1O` [Example 22, N^6-(2,2-Diphenyl-2-hydroxyethyl)adenosine], the minimal effective dose in data set [1] (setting [6]) amounted to 1 mg/kg; in data set [5] (setting [9]), 10 mg/kg. Also, the pEC50 in data set [3] (setting [7]) is under 6.00; in data set [3] (setting [8]), 6.30. Also, the “MAST ST LAD” value in data set [4] was found to be 100 mg/kg.
On to `Nc1nc(NCC(O)(c2ccccc2)c2ccccc2)c2ncn([C@@H]3O[C@H](CO)[C@@H](O)[C@H]3O)c2n1` [Example 23, N^6-(2,2-Diphenyl-2-hydroxyethyl)-2-aminoadenosine], for which the minimal effective dose was 3 mg/kg in data set [1] (setting [6]) and over 10 mg/kg in data set [5] (setting [9]). For the same molecule, the pEC50 in data set [3] (setting [7]) was under 5.52; in data set [3] (setting [8]), about 6.00. Besides, the “MAST ST LAD” value in data set [4] is recorded as over 100 mg/kg.
